Here are results for 10 molecules from ChEMBL document CHEMBL4033705, “Screening for bioactive natural products from a 67-compound library of Glycyrrhiza inflata” (Bioorg Med Chem, 2017).

Series [1] concerns the target Mushroom tyrosinase (Agaricus bisporus) (UniProt O42713+Q00024+C7FF04+C7FF05). Description: Inhibition of mushroom tyrosinase at 10 uM using L-tyrosine as substrate incubated for 15 mins followed by substrate addition relative to control.
In another series the target is Mushroom tyrosinase (Agaricus bisporus, UniProt O42713+Q00024+C7FF04+C7FF05). Description: Inhibition of mushroom tyrosinase using L-tyrosine as substrate incubated for 15 mins followed by substrate addition.
Series [2] relates to HepG2. Description: Growth inhibition of human HepG2 cells at 10 uM after 24 hrs by MTS assay relative to control. It counts as functional. To be noted: HepG2, 24 h, read-out: GI. On the technique in general: Tetrazolium dyes change colour on reduction, which living cells bring about.
For series [3], the species on record is Homo sapiens. Description: Inhibition of LPS-induced NF-kappaB transcription (unknown origin) expressed in human SW480 cells at 10 uM by luciferase reporter gene assay. In kind it is cell-based. (In general: A reporter such as luciferase makes a cellular process visible.)
In series [4] the target is T1, Tyrosine-protein phosphatase non-receptor type 1 (Homo sapiens) (UniProt P18031).
T1 sequence (whole entry): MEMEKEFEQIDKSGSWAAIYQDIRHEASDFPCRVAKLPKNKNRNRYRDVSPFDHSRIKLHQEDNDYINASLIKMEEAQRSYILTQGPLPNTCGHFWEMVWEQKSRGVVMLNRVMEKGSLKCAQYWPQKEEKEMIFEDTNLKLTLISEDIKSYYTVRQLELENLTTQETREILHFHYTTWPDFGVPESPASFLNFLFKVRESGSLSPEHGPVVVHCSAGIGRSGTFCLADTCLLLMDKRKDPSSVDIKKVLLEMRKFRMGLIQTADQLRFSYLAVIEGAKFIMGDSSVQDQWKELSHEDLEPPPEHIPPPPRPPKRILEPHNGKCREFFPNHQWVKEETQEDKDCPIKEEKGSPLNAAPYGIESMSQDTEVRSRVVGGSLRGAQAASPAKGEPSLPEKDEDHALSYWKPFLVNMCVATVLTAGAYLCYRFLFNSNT
Description: Inhibition of recombinant human PTP1B using p-nitrophenyl phosphate as substrate at 10 uM after 30 mins relative to control.

Series [5] can be described thus: (§1) Growth inhibition of human LO2 cells at 10 uM after 24 hrs by MTS assay relative to control. It counts as cell-based, L02. To be noted: LO2 cells, read-out: GI.
Series [6] concerns MCF7. Description: Growth inhibition of human MCF7 cells at 10 uM after 24 hrs by MTS assay relative to control. It counts as functional. Particulars: MCF7, 24 h, read-out: GI; call rule not given here.
Series [7] has as its system SW480. Description: Growth inhibition of human SW480 cells at 10 uM after 24 hrs by MTS assay relative to control. In kind it is functional. Particulars: SW480, 24 h, read-out: GI.
For series [8], the system named is RAW264.7. Description: Antiinflammatory activity in mouse RAW264.7 cells assessed as inhibition of LPS-induced NO production at 10 uM after 24 hrs by Griess reagent based assay relative to control. In kind it is functional. Particulars: RAW264.7, 24 h. On the technique in general: Griess reagent forms a coloured azo dye with nitrite.
Series [9] in a line: (§2) Growth inhibition of human HEK293T cells at 10 uM after 24 hrs by MTS assay relative to control. In kind it is cell-based, HEK-293T. To be noted: HEK293T cells, read-out: GI.
Series [10] concerns HepG2. Description: Cytotoxicity against human HepG2 cells assessed as reduction in cell viability after 24 hrs by MTS assay. In kind it is functional, cell-based. To be noted: HepG2, 24 h.
Series [11] has as its system MCF7. Description: Cytotoxicity against human MCF7 cells assessed as reduction in cell viability after 24 hrs by MTS assay. It counts as functional, cell-based. To be noted: MCF7, 24 h.
For a further series, the system named is L02. The series is described as §1. In kind it is cell-based. To be noted: l02, 24 h, 10 µM.
Series [12] concerns SW480. Description: Cytotoxicity against human SW480 cells assessed as reduction in cell viability after 24 hrs by MTS assay. In kind it is functional, cell-based. Particulars: SW480, 24 h.
Series [13] deals with T2, Tyrosine-protein phosphatase non-receptor type 1 (Homo sapiens, UniProt P18031).
T2 sequence (P18031 whole entry): T1 sequence (whole entry)
Description: Inhibition of recombinant human PTP1B using p-nitrophenyl phosphate as substrate after 30 mins.

The subject of a further series is HEK-293T. The description is as §2. Particulars: hek-293t, 24 h, 10 µM. It counts as cell-based.
Series [14] deals with RAW264.7. Description: Antiinflammatory activity in mouse RAW264.7 cells assessed as inhibition of LPS-induced NO production after 24 hrs by Griess reagent based assay. It counts as functional, cell-based. To be noted: RAW264.7, 24 h.
Series [15] can be described thus: Inhibition of LPS-induced NF-kappaB transcription (unknown origin) expressed in human SW480 cells by luciferase reporter gene assay. It counts as cell-based.
For series [16], the system named is RAW264.7. Description: Antiinflammatory activity in mouse RAW264.7 cells assessed as inhibition of LPS-induced NO production at 20 uM after 24 hrs by Griess reagent based assay relative to control. It counts as functional. Particulars: RAW264.7, 24 h.
Series [17] is filed under the species Homo sapiens. Description: Inhibition of LPS-induced NF-kappaB transcription (unknown origin) expressed in human SW480 cells at 20 uM by luciferase reporter gene assay. It counts as cell-based.

pIC50: −log10 of the molar value. Where a SMILES comes first, the peptide text is derived from it. The star is where a group is joined. Cbz = O=C(OCc1ccccc1)*

With `CC1(C)C=Cc2cc(-c3coc4cc(O)cc(O)c4c3=O)cc(O)c2O1`, the values for the inhibition (in series [1]; in the series listed under Homo sapiens [3]; in [4]) were 95%, 8% and 58%, respectively. Besides, the IC50 (in general, the midpoint of a concentration-inhibition curve) on Mushroom tyrosinase was 0.25 µM. The results for the inhibition of growth at 10 µM in the series with HepG2 [2], in the series with MCF7 [6] and with SW480 [7] were 5%, 15% and 29%, respectively. In addition, the inhibition at 24 h, 10 µM came out at 7% in [5] and 0% in series [9]. Moreover, the inhibition at 10 µM in the series on RAW264.7 [8] is 14%.

Turning to `CC(C)=CCc1c(O)cc2occ(-c3cc(O)c4c(c3)C=CC(C)(C)O4)c(=O)c2c1O`, the values for the inhibition (in series [1]; in the series listed under Homo sapiens [3]; in series [4]) were 1%, 14% and 92%, respectively. Further, the pIC50 (usually the negative decadic logarithm of the IC50, by convention in mol/L) was 5.45 in the series on HepG2 [10], 5.14 in the series on MCF7 [11], 5.10 with SW480 [12] and 5.83 in series [13]. Also, the inhibition of growth at 10 µM was 89% with HepG2 [2], 92% with MCF7 [6] and 82% in the series with SW480 [7]. Moreover, the inhibition at 24 h, 10 µM turned out to be 5% in series [5] and 11% in series [9]. Also, the Activity entry with L02 and in the series on HEK-293T was “Non-Toxic” each time. Also, in the series with RAW264.7 [8], the inhibition at 10 µM came out at 0%.

Consider `C=C(C)[C@H](C)c1cc(/C=C/C(=O)c2ccc(O)cc2)c(OC)cc1O` [LICOCHALCONE E], for which the figures for the inhibition (in series [1]; in the series listed under Homo sapiens [3]; in [4]) were 8%, 72% and 21%, respectively. Further, the inhibition of growth at 10 µM with HepG2 [2] is 23%; in the series on MCF7 [6], 42%; in the series with SW480 [7], 44%. The inhibition at 24 h, 10 µM in series [5] stood at 22%; in [9] it was 34%. For the same molecule, the pIC50 in the series with RAW264.7 [14] was 5.04; in series [15], 5.42. Moreover, the inhibition at 10 µM in the series with RAW264.7 [8] was found to be 55%.

With `CC(C)=CCc1cc([C@@H]2CC(=O)c3c(O)cc(O)c(CC=C(C)C)c3O2)ccc1O` [LESPEDEZAFLAVANONE B], the figures for the inhibition (in series [1]; in the series filed under Homo sapiens [3]; in series [4]) were 5%, 34% and 46%, respectively. For the same molecule, the figures for the inhibition of growth at 10 µM in the series with HepG2 [2], in the series on MCF7 [6] and with SW480 [7] were 24%, 86% and 81%, respectively. Also, the pIC50 with MCF7 [11] was 4.88; with SW480 [12], 4.90. The inhibition at 24 h, 10 µM in series [5] came out at 12%; in series [9], 6%. Further, the Activity result in the series with L02 and with HEK-293T was “Non-Toxic” throughout. The inhibition at 10 µM in the series with RAW264.7 [8] was 14%.

Take `CC(C)=CCc1c(O)ccc(-c2coc3c(CC=C(C)C)c(O)cc(O)c3c2=O)c1O`: the inhibition came out at 7% in series [1], 19% in the series filed under Homo sapiens [3] and 96% in [4]. For the same molecule, the pIC50 in the series on HepG2 [10] was 5.25; in the series with MCF7 [11], 5.13; with SW480 [12], 5.34; in series [13] it was 6.30. The inhibition of growth at 10 µM with HepG2 [2] was found to be 80%; in the series on MCF7 [6], 88%; in the series on SW480 [7] it was 98%. Moreover, the inhibition at 24 h, 10 µM amounted to 20% in series [5] and 10% in [9]. The Activity result with L02 and in the series with HEK-293T was “Non-Toxic” throughout. The inhibition at 10 µM with RAW264.7 [8] stood at 11%.

`COc1cc(/C=C/C(=O)CC(=O)/C=C/c2ccc(O)c(OC)c2)ccc1O` [CURCUMIN]: the inhibition at 20 µM with RAW264.7 [16] came out at 70%.

In the series filed under Homo sapiens [17], `CC(C)C[C@@H](C=O)NC(=O)[C@H](CC(C)C)NC(=O)[C@H](CC(C)C)NC(=O)OCc1ccccc1` (Cbz-Leu-Leu-Leu-aldehyde) yielded an inhibition of 70%.

Take `CC1(C)C=Cc2c(O)ccc(-c3coc4cc(O)cc(O)c4c3=O)c2O1`: the figures for the inhibition (in series [1]; in the series filed under Homo sapiens [3]; in [4]) were 90%, 12% and 36%, respectively. In addition, the IC50 against Mushroom tyrosinase stood at 0.8 µM. Moreover, the inhibition of growth at 10 µM in the series with HepG2 [2] was 22%; in the series with MCF7 [6] it was 28%; in the series with SW480 [7], 15%. For the same molecule, the inhibition at 24 h, 10 µM in series [5] was determined as 24%; in series [9], 1%. Further, the inhibition at 10 µM with RAW264.7 [8] stood at 21%.

Regarding `CC1(C)C=Cc2c(ccc3c2OC[C@@H](c2ccc(O)cc2O)C3)O1` [GLABRIDIN], the inhibition is 98% in [1], 0% in the series listed under Homo sapiens [3] and 38% in series [4]. For the same molecule, on Mushroom tyrosinase, the IC50 was 0.1 µM. In addition, the inhibition of growth at 10 µM in the series on HepG2 [2] is 7%; in the series with MCF7 [6] it was 0%; with SW480 [7], 32%. Further, the inhibition at 24 h, 10 µM stood at 3% in series [5] and 2% in series [9]. Besides, the inhibition at 10 µM in the series on RAW264.7 [8] was 7%.

With `COc1c(/C=C/C(=O)c2ccc(O)c(O)c2)ccc(O)c1CC=C(C)C`, the inhibition in series [1] was determined as 11%; in the series listed under Homo sapiens [3], 80%; in series [4] it was 75%. Also, the inhibition of growth at 10 µM in the series with HepG2 [2] was 5%; in the series on MCF7 [6], 21%; in the series with SW480 [7] it was 21%. For the same molecule, the figures for the inhibition at 24 h, 10 µM in series [5] and in [9] were 9% and 28%, respectively. Further, the pIC50 in the series with RAW264.7 [14] was 5.03; in series [15], 5.61. Besides, the inhibition at 10 µM in the series with RAW264.7 [8] came out at 85%.
